Laboratory results from PMC12669040, “Tumour-specific STING agonist synthesis via a two-component prodrug system” (Nature Chemistry, 2025).
Values joined by “and” are separate entries in the source; they are usually repeats but may differ in a detail not shown here. Identical values can stand only once. Like-named read-outs stand apart in the source and are kept apart here.

Assays:
THP-1 cells = test: Dilution limits of N1/E4 combination to activate THP-1 cells (IFN-β ELISA); details: IFN-β secretion, 6 h, single component
[1] = LC-MS analysis of the N1–E4 reaction in the presence of glutathione; assay type: physicochemical; details: 50 μM N1 + 50 μM E4, 1 mM glutathione, pH 7.0, 37 °C, 2 h
Protocol: Extended Data Fig. 5 LC-MS analysis of the reaction between N1 and E4 in the presence of glutathione (1 mM). N1 (50 μM) and E4 (50 μM) were reacted at neutral pH (25 mM HEPES pH 7.0, 150 mM NaCl) and in the presence of reduced glutathione (1 mM). The reaction mixture was incubated at 37 °C for 2 h. No glutathione-adduct of E4 was identified. TEXT PRINTED IN THE PICTURE: no label printed: exact mass: 340.04 | no label printed: exact mass: 618.05

CT26mβGUS tumours [2] = details: mouse, in vivo
E. coli β-glucuronidase = E. coli β-glucuronidase (Escherichia coli, UniProt P05804); details: pH 6.8
E. coli β-glucuronidase, sequence (P05804 whole entry): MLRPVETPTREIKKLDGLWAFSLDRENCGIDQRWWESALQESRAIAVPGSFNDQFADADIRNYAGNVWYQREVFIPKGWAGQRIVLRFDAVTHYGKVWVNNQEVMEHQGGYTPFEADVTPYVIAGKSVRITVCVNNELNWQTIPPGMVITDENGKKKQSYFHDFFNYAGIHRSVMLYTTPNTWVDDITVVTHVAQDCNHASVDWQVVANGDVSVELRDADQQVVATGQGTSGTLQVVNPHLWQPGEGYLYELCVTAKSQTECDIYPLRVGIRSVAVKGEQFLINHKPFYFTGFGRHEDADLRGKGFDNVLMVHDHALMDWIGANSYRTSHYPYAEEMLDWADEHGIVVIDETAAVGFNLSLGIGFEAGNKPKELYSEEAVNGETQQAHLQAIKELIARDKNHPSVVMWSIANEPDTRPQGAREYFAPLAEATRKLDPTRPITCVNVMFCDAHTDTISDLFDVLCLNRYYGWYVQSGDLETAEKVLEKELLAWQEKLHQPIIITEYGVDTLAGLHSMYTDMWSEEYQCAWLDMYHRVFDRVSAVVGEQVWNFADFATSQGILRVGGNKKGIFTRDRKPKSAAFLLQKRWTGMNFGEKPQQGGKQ

CT26mβGUS tumours [3] = test: CT26mβGUS syngeneic mouse tumour model; details: single component alone
[4] = Stability test in human plasma; assay type: in vitro ADME; details: 48 h, 37 °C
Protocol: Extended Data Fig. 6 Stability test of β-GlcA-N1 (1 mM) in human plasma. At the indicated time point, an 80 µL aliquot was loaded onto an Agilent Bond Elut solid phase extraction column (C18, 3 mL bed volume). The collected eluent was lyophilized, redissolved in a 50% (v/v) acetonitrile in water (0.1% v/v formic acid), and analyzed by LC-MS. TEXT PRINTED IN THE PICTURE: β-GlcA-N1: integration value: 91206 (t = 0 hr, human plasma); integration value: 84431 (t = 48 hr, 37 °C, human plasma) | no label printed: exact mass: 502.06 | no label printed: exact mass: 309.02 DOUBTS OF THE COPYIST ABOUT THIS PICTURE: The name β-GlcA-N1 is printed only at the peak in the upper chromatogram. The lower chromatogram's integration value (84431) is assigned to it as the same peak. / The two drawn structures have no printed label. Their exact masses are given with an empty substance label.

human β-glucuronidase = biological target: T1, human β-glucuronidase (Homo sapiens, UniProt P08236); test: Michaelis–Menten kinetics of β-GlcA-N1 cleavage; assay type: biochemical; details: for dilution-corrected deltaN1: replicates 1 and 2
T1 construct: purchased AcroBiosystems BEB-H52H3
T1 sequence (P08236 23-651): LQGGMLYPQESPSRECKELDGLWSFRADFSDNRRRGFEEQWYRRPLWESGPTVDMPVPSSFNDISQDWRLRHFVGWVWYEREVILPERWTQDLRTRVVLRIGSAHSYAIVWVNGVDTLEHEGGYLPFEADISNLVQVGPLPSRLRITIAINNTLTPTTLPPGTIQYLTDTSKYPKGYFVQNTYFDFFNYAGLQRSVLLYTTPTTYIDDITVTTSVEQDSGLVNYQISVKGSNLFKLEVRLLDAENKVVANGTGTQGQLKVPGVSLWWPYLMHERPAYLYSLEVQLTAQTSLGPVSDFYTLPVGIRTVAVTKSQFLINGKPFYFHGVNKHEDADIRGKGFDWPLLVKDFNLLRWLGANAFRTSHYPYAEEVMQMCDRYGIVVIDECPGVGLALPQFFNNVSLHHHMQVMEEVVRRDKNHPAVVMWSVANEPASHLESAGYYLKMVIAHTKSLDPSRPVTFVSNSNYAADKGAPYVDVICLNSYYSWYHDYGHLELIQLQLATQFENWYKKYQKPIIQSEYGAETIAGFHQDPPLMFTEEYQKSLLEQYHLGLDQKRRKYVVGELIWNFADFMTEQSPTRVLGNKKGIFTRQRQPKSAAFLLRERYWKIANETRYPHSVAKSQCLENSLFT
Protocol: Human β-glucuronidase (AcroBiosystems BEB-H52H3) was reconstituted in deionized water to a concentration of 1 mg ml^−1. The enzyme stock solution was further diluted in assay buffer (0.2 M acetate pH 4.5) to 10 μg ml^−1 (134 nM). β-GlcA-N1 (50 mM DMSO stock) was twofold serially diluted in assay buffer from 5 to 0.078 mM. The enzyme solution and diluted β-GlcA-N1 were incubated in a transparent 96-well plate and incubated at 37 °C until thermo equilibrium was reached. Then, 100 µl of β-GlcA-N1 at various concentrations was mixed with 100 µl of β-glucuronidase using a multichannel pipette, resulting in the following initial condition: [β-GlcA-N1] = 2.5, 1.25, 0.62, 0.31, 0.16, 0.08 and 0.04 mM; [β-glucuronidase] = 67 nM; 5% DMSO (v/v). The reactions were incubated at 37 °C. At 30-min and 60-min timepoints, a 50-µl portion was withdrawn from each reaction mixture and mixed with 50 µl of quenching buffer (1 M sodium carbonate, 1 mM TCEP). The concentration of liberated N1 was determined by comparing the absorbance of each quenched reaction at 410 nm to a calibration curve of purified N1. Reaction velocities were calculated from the slopes of [N1] versus time plots. The velocity versus [β-GlcA-N1] plot was then fitted with the standard Michaelis–Menten kinetic model (GraphPad Prism).

MC38 tumours = details: for Tumor Size: individual mice, * = excluded once a death was recorded in the group

Compound	concentration up to which no STING activation was shown (alone) (THP-1 cells)	glutathione adduct formation [1]	body weight (CT26mβGUS tumours [2])	stability in phosphate buffer without added enzyme (E. coli β-glucuronidase)	body weight (CT26mβGUS tumours [3])	fraction remaining intact in human plasma [4]	kcat (human β-glucuronidase; Vmax / enzyme (6.71141e-8 M))	dilution-corrected deltaN1 (human β-glucuronidase; substrate conc. 0.0390625 mM)	dilution-corrected deltaN1 (human β-glucuronidase; substrate conc. 0.078125 mM)	dilution-corrected deltaN1 (human β-glucuronidase; substrate conc. 0.15625 mM)	dilution-corrected deltaN1 (human β-glucuronidase; substrate conc. 0.3125 mM)	dilution-corrected deltaN1 (human β-glucuronidase; substrate conc. 0.625 mM)	dilution-corrected deltaN1 (human β-glucuronidase; substrate conc. 1.25 mM)	dilution-corrected deltaN1 (human β-glucuronidase; substrate conc. 2.5 mM)	Tumor Size (MC38 tumours; day 23)	Tumor Size (MC38 tumours; day 25)	Tumor Size (MC38 tumours; day 30)	Tumor Size (MC38 tumours; day 33)	Survival: Days (MC38 tumours; mouse, in vivo)	Survival: death event (1 denotes a death event) (MC38 tumours; mouse, in vivo)
COc1cc2sc(C(=O)CCC(=O)O)cc2cc1SCCCl [Compound E4]	> 64 µM	No glutathione–E4 adduct was detected	no significant losses were observed	most E4 underwent hydrolysis																
COc1cc2sc(C(=O)CCC(=O)O)cc2cc1SCO[C@@H]1O[C@H](C(=O)O)[C@@H](O)[C@H](O)[C@H]1O [β-GlcA-N1]				remained stable	no significant losses were observed	more than 90%	0.4762	4.272e-06 mM/s and 3.586e-06 mM/s	6.962e-06 mM/s and 7.225e-06 mM/s	1.1761e-05 mM/s and 1.16e-05 mM/s	1.598e-05 mM/s and 1.529e-05 mM/s	2.231e-05 mM/s and 1.587e-05 mM/s	2.547e-05 mM/s and 2.51e-05 mM/s	3.022e-05 mM/s and 2.88e-05 mM/s	113* mm^3 and 189.9* mm^3	125.8124* mm^3 and 301.5* mm^3	445.0408* mm^3 and 632.5* mm^3	1167* mm^3 and 1562* mm^3	17 days and 33 days and 21 days	1
